Each molecule was assayed against GST-Bc1-2 (Homo sapiens, UniProt P10415) (assay: Time Resolved-Fluorescence Resonance Energy Transfer (TR-FRET) Bcl-2 binding assay with F-Bak peptide probe). Settings: GST-Bcl-2 1 nM, F-Bak probe 100 nM, Tb-anti-GST 1 nM; '<' = below limit of detection; read-out: TR-FRET Bcl-2 Binding Ki.
Sequence of GST-Bc1-2 (P10415 whole entry): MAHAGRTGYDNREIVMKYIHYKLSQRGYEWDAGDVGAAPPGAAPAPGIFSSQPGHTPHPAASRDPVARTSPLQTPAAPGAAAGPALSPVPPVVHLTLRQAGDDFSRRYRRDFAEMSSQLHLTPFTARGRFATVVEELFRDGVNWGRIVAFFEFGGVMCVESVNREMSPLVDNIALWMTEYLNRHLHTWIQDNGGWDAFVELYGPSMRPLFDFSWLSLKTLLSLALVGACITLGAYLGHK

Compound | Ki [nM]
CC1(C)CCC(CN2CCN(c3ccc(C(=O)NS(=O)(=O)c4ccc(OCCOC5CCOC5)c([N+](=O)[O-])c4)c(Oc4cnc5[nH]ccc5c4)c3)CC2)=C(c2ccc(Cl)cc2)C1 (stereo not shown) [Example 275, 4-(4-{[2-(4-chlorophenyl)-4,4-dimethylcyclohex-1-en-1-yl]methyl}piperazin-1-yl)-N-({3-nitro-4-[2-(tetrahydrofuran-3-yloxy)ethoxy]phenyl}sulfonyl)-2-(1H-pyrrolo[2,3-b]pyridin-5-yloxy)benzamide] | < 0.01
CC1(C)CCC(CN2CCN(c3ccc(C(=O)NS(=O)(=O)c4ccc(NCC5CCN(C6CC6)CC5)c([N+](=O)[O-])c4)c(Oc4cnc5[nH]ccc5c4)c3)CC2)=C(c2ccc(Cl)cc2)C1 [Example 164, 4-(4-{[2-(4-chlorophenyl)-4,4-dimethylcyclohex-1-en-1-yl]methyl}piperazin-1-yl)-N-[(4-{[(1-cyclopropylpiperidin-4-yl)methyl]amino}-3-nitrophenyl)sulfonyl]-2-(1H-pyrrolo[2,3-b]pyridin-5-yloxy)benzamide] | < 0.01
CC1(C)CCC(CN2CCN(c3ccc(C(=O)NS(=O)(=O)c4ccc(N[C@@H]5CCN(CC#N)C5)c([N+](=O)[O-])c4)c(Oc4cnc5[nH]ccc5c4)c3)CC2)=C(c2ccc(Cl)cc2)C1 [Example 262, 4-(4-{[2-(4-chlorophenyl)-4,4-dimethylcyclohex-1-en-1-yl]methyl}piperazin-1-yl)-N-[(4-{[(3R)-1-(cyanomethyl)pyrrolidin-3-yl]amino}-3-nitrophenyl)sulfonyl]-2-(1H-pyrrolo[2,3-b]pyridin-5-yloxy)benzamide] | < 0.01
CC1(C)CCC(CN2CCN(c3ccc(C(=O)NS(=O)(=O)c4cc(Cl)c(NCC5CCOCC5)c(C#N)c4)c(Oc4cnc5[nH]ccc5c4)c3)CC2)=C(c2ccc(Cl)cc2)C1 [Example 52, N-({3-chloro-5-cyano-4-[(tetrahydro-2H-pyran-4-ylmethyl)amino]phenyl}sulfonyl)-4-(4-{[2-(4-chlorophenyl)-4,4-dimethylcyclohex-1-en-1-yl]methyl}piperazin-1-yl)-2-(1H-pyrrolo[2,3-b]pyridin-5-yloxy)benzamide] | 0.114
CC1(C)CCC(CN2CCN(c3ccc(C(=O)NS(=O)(=O)c4ccc(N[C@H]5CC[C@H](NC6CCOCC6)CC5)c([N+](=O)[O-])c4)c(Oc4cnc5[nH]ccc5c4)c3)CC2)=C(c2ccc(Cl)cc2)C1 [Example 123, Trans-4-(4-{[2-(4-chlorophenyl)-4,4-dimethylcyclohex-1-en-1-yl]methyl}piperazin-1-yl)-N-[(3-nitro-4-{[4-(tetrahydro-2H-pyran-4-ylamino)cyclohexyl]amino}phenyl)sulfonyl]-2-(1H-pyrrolo[2,3-b]pyridin-5-yloxy)benzamide] | < 0.01
CC1(C)CC(c2ccc(Cl)cc2)=C(CN2CCN(c3ccc(C(=O)NS(=O)(=O)c4ccc(N[C@H]5CC[C@H](N6CCOCC6)CC5)c(S(=O)(=O)C(F)(F)F)c4)c(Oc4cnc5[nH]ccc5c4)c3)CC2)CO1 [Example 44, Trans-4-(4-{[4-(4-chlorophenyl)-6,6-dimethyl-5,6-dihydro-2H-pyran-3-yl]methyl}piperazin-1-yl)-N-({4-[(4-morpholin-4-ylcyclohexyl)amino]-3-[(trifluoromethyl)sulfonyl]phenyl}sulfonyl)-2-(1H-pyrrolo[2,3-b]pyridin-5-yloxy)benzamide] | < 0.01
CC1(C)CCC(CN2CCN(c3ccc(C(=O)NS(=O)(=O)c4ccc(OCC5COCCN5)c([N+](=O)[O-])c4)c(Oc4cnc5[nH]ccc5c4)c3)CC2)=C(c2ccc(Cl)cc2)C1 (stereo not shown) [Example 78, 4-(4-{[2-(4-chlorophenyl)-4,4-dimethylcyclohex-1-en-1-yl]methyl}piperazin-1-yl)-N-{[4-(morpholin-3-ylmethoxy)-3-nitrophenyl]sulfonyl}-2-(1H-pyrrolo[2,3-b]pyridin-5-yloxy)benzamide] | < 0.01
CN1CCC(Nc2ccc(S(=O)(=O)NC(=O)c3ccc(N4CCN(CC5=C(c6ccc(Cl)cc6)CC(C)(C)CC5)CC4)cc3Oc3cccc4[nH]c5ccccc5c34)cc2[N+](=O)[O-])CC1 [Example 7, 2-(9H-carbazol-4-yloxy)-4-(4-{[2-(4-chlorophenyl)-4,4-dimethylcyclohex-1-en-1-yl]methyl}piperazin-1-yl)-N-({4-[(1-methylpiperidin-4-yl)amino]-3-nitrophenyl}sulfonyl)benzamide] | 4.92
CC1(C)CCC(CN2CCN(c3ccc(C(=O)NS(=O)(=O)c4cnc(OCC(C)(CO)CO)c(Cl)c4)c(Oc4cnc5[nH]ccc5c4)c3)CC2)=C(c2ccc(Cl)cc2)C1 [Example 250, N-({5-chloro-6-[3-hydroxy-2-(hydroxymethyl)-2-methylpropoxy]pyridin-3-yl}sulfonyl)-4-(4-{[2-(4-chlorophenyl)-4,4-dimethylcyclohex-1-en-1-yl]methyl}piperazin-1-yl)-2-(1H-pyrrolo[2,3-b]pyridin-5-yloxy)benzamide] | 0.412
CC1(C)CCC(CN2CCN(c3ccc(C(=O)NS(=O)(=O)c4ccc(OC[C@H]5CC[C@H](O)CC5)c(Cl)c4)c(Oc4cnc5[nH]ccc5c4)c3)CC2)=C(c2ccc(Cl)cc2)C1 [Example 305, N-({3-chloro-4-[(trans-4-hydroxycyclohexyl)methoxy]phenyl}sulfonyl)-4-(4-{[2-(4-chlorophenyl)-4,4-dimethylcyclohex-1-en-1-yl]methyl}piperazin-1-yl)-2-(1H-pyrrolo[2,3-b]pyridin-5-yloxy)benzamide] | 0.033
O=C(NS(=O)(=O)c1ccc(NCC2CCOCC2)c([N+](=O)[O-])c1)c1ccc(N2CCN(CC3=C(c4ccc(Cl)cc4)CC4(CC3)CC4)CC2)cc1Oc1cnc2[nH]ccc2c1 [Example 328, 4-(4-{[5-(4-chlorophenyl)spiro[2.5]oct-5-en-6-yl]methyl}piperazin-1-yl)-N-({3-nitro-4-[(tetrahydro-2H-pyran-4-ylmethyl)amino]phenyl}sulfonyl)-2-(1H-pyrrolo[2,3-b]pyridin-5-yloxy)benzamide] | < 0.01
CC1(C)CCC(CN2CCN(c3ccc(C(=O)NS(=O)(=O)c4cnc(OCC5COCCO5)c(C#N)c4)c(Oc4cnc5[nH]ccc5c4)c3)CC2)=C(c2ccc(Cl)cc2)C1 (stereo not shown) [Example 49, 4-(4-{[2-(4-chlorophenyl)-4,4-dimethylcyclohex-1-en-1-yl]methyl}piperazin-1-yl)-N-{[5-cyano-6-(1,4-dioxan-2-ylmethoxy)pyridin-3-yl]sulfonyl}-2-(1H-pyrrolo[2,3-b]pyridin-5-yloxy)benzamide] | 0.074
CC1(C)CCC(CN2CCN(c3ccc(C(=O)NS(=O)(=O)c4ccc(NCC5CN(S(C)(=O)=O)CCO5)c([N+](=O)[O-])c4)c(Oc4cnc5[nH]ccc5c4)c3)CC2)=C(c2ccc(Cl)cc2)C1 (stereo not shown) [Example 319, 4-(4-{[2-(4-chlorophenyl)-4,4-dimethylcyclohex-1-en-1-yl]methyl}piperazin-1-yl)-N-{[4-({[4-(methylsulfonyl)morpholin-2-yl]methyl}amino)-3-nitrophenyl]sulfonyl}-2-(1H-pyrrolo[2,3-b]pyridin-5-yloxy)benzamide] | < 0.01
CC1(C)CCC(CN2CCN(c3ccc(C(=O)NS(=O)(=O)c4ccc(OC[C@H]5COCCO5)c([N+](=O)[O-])c4)c(Oc4cnc5[nH]ccc5c4)c3)CC2)=C(c2ccc(Cl)cc2)C1 [Example 30, 4-(4-{[2-(4-chlorophenyl)-4,4-dimethylcyclohex-1-en-1-yl]methyl}piperazin-1-yl)-N-({4-[(2R)-1,4-dioxan-2-ylmethoxy]-3-nitrophenyl}sulfonyl)-2-(1H-pyrrolo[2,3-b]pyridin-5-yloxy)benzamide] | < 0.01
CCOC(=O)N1CCN(c2ccc(S(=O)(=O)NC(=O)c3ccc(N4CCN(CC5=C(c6ccc(Cl)cc6)CC(C)(C)CC5)CC4)cc3Oc3cnc4[nH]ccc4c3)cc2[N+](=O)[O-])CC1 [Example 222, ethyl 4-(4-{[4-(4-{[2-(4-chlorophenyl)-4,4-dimethylcyclohex-1-en-1-yl]methyl}piperazin-1-yl)-2-(1H-pyrrolo[2,3-b]pyridin-5-yloxy)benzoyl]sulfamoyl}-2-nitrophenyl)piperazine-1-carboxylate] | 0.938
CC(=O)N1CCC(Nc2ccc(S(=O)(=O)NC(=O)c3ccc(N4CCN(CC5=C(c6ccc(Cl)cc6)CC(C)(C)CC5)CC4)cc3Oc3cnc4[nH]ccc4c3)cc2[N+](=O)[O-])CC1 [Example 53, N-({4-[(1-acetylpiperidin-4-yl)amino]-3-nitrophenyl}sulfonyl)-4-(4-{[2-(4-chlorophenyl)-4,4-dimethylcyclohex-1-en-1-yl]methyl}piperazin-1-yl)-2-(1H-pyrrolo[2,3-b]pyridin-5-yloxy)benzamide] | < 0.01
CO[C@H]1CC[C@@H](COc2ncc(S(=O)(=O)NC(=O)c3ccc(N4CCN(CC5=C(c6ccc(Cl)cc6)CC(C)(C)CC5)CC4)cc3Oc3cnc4[nH]ccc4c3)cc2Cl)CC1 [Example 211, Cis-N-({5-chloro-6-[(4-methoxycyclohexyl)methoxy]pyridin-3-yl}sulfonyl)-4-(4-{[2-(4-chlorophenyl)-4,4-dimethylcyclohex-1-en-1-yl]methyl}piperazin-1-yl)-2-(1H-pyrrolo[2,3-b]pyridin-5-yloxy)benzamide] | 0.058
CN(C)CC(=O)N1CCO[C@H](CNc2ccc(S(=O)(=O)NC(=O)c3ccc(N4CCN(CC5=C(c6ccc(Cl)cc6)CC(C)(C)CC5)CC4)cc3Oc3cnc4[nH]ccc4c3)cc2[N+](=O)[O-])C1 [Example 258, 4-(4-{[2-(4-chlorophenyl)-4,4-dimethylcyclohex-1-en-1-yl]methyl}piperazin-1-yl)-N-{[4-({[(2R)-4-(N,N-dimethylglycyl)morpholin-2-yl]methyl}amino)-3-nitrophenyl]sulfonyl}-2-(1H-pyrrolo[2,3-b]pyridin-5-yloxy)benzamide] | < 0.01
CCN1CCOCC1COc1ncc(S(=O)(=O)NC(=O)c2ccc(N3CCN(CC4=C(c5ccc(Cl)cc5)CC(C)(C)CC4)CC3)cc2Oc2cnc3[nH]ccc3c2)cc1Br (stereo not shown) [Example 102, N-({5-bromo-6-[(4-ethylmorpholin-3-yl)methoxy]pyridin-3-yl}sulfonyl)-4-(4-{[2-(4-chlorophenyl)-4,4-dimethylcyclohex-1-en-1-yl]methyl}piperazin-1-yl)-2-(1H-pyrrolo[2,3-b]pyridin-5-yloxy)benzamide] | 0.094

Source: patent US8580794B2 (AbbVie Inc., priority 2009, dated 2013)
